Measured values published in patent publication EP4667483A1, “HUMAN TRANSFERRIN RECEPTOR-BINDING PEPTIDE” (JCR Pharmaceuticals Co., Ltd., priority 2023, dated 2024).
Where two headings read alike, the source gives them in different places. Numbered stars: 1 amine (or outer) side, 2 acyl side, 3 side chain; on linkers, the order of the positions; unused ones are H or OH. Bridge positions count the residues as written; N and C are the ends. Square brackets hold non-standard residues; d marks the D form. Side chains are listed from the residue outwards. Peptide text beside a SMILES is read from it. * marks the point of attachment. Trp(1-CH2COOH) = N[C@@H](Cc1cn(CC(=O)O)c2ccccc12)C(=O)O; CH2CON(CH2CH2)2NCH2COOH = O=C(O)CN1CCN(C(=O)C*)CC1; NMePhe(4-COOH) = CN[C@@H](Cc1ccc(C(=O)O)cc1)C(=O)O; X1 = O=C([C@H](Cc1cccc(C(=O)[*:3])c1)N[*:1])[*:2]; Nle(6-morpholino) = N[C@@H](CCCCN1CCOCC1)C(=O)O; Phe(3-COOH) = N[C@@H](Cc1cccc(C(=O)O)c1)C(=O)O; Trp(7-aza) = N[C@@H](Cc1c[nH]c2ncccc12)C(=O)O; NH(CH2CH2O)8Me = COCCOCCOCCOCCOCCOCCOCCOCCN*; NMePhe(3-Cl) = CN[C@@H](Cc1cccc(Cl)c1)C(=O)O; Piperazinyl(4-CH2COOH) = O=C(O)CN1CCN(*)CC1; 3Pal(6-NH2) = Nc1ccc(C[C@H](N)C(=O)O)cn1; NMeW = CN[C@@H](Cc1c[nH]c2ccccc12)C(=O)O; Lys(N3) = [N-]=[N+]=NCCCC[C@H](N)C(=O)O; NMeY = CN[C@@H](Cc1ccc(O)cc1)C(=O)O; Nva(3-Et) = CCC(CC)[C@H](N)C(=O)O; NMeF = CN[C@@H](Cc1ccccc1)C(=O)O; 4Pal = N[C@@H](Cc1ccncc1)C(=O)O; PEG4 = NCCOCCOCCOCCOCCC(=O)O; Carboxymethyl = O=C(O)C*; CO = O=C([*:1])[*:2]

Target: human transferrin receptor (hTfR) (Homo sapiens, UniProt P02786)
Sequence (P02786 whole entry): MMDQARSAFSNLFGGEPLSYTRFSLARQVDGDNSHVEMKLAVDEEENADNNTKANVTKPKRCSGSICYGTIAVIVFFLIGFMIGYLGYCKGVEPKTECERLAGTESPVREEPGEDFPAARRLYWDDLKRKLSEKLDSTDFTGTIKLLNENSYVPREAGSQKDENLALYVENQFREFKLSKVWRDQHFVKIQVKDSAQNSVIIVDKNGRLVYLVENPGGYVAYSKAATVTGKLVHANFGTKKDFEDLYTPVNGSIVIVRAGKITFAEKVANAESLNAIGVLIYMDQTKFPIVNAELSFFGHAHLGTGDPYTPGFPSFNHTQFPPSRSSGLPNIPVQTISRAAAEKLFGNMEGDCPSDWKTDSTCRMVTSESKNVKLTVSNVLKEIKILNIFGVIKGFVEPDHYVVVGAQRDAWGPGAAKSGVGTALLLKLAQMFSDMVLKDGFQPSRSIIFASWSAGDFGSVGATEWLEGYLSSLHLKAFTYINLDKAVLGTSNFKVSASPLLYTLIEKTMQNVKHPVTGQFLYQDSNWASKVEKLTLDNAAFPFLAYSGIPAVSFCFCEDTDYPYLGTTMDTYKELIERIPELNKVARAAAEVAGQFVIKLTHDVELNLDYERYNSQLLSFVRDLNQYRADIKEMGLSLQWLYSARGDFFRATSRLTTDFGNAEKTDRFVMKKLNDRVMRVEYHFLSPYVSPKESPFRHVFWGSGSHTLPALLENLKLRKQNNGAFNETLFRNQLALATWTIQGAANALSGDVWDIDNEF
Test: SPR measurement under pH 7.4 conditions (Biacore T200, CM3 chip, hTfR captured by His Tag antibody)
Assay type: binding
Details: SPR, pH 7.4
Description: Molecular interactions between the synthesized peptides and the transferrin receptor (hTfR) were evaluated by surface plasmon resonance (SPR) using the following method. The specific assay procedure is described below.
An CM3 sensor chip (Cytiva) was inserted into BiacoreT200 (Cytiva), then a priming operation was performed three times by using a running buffer: HBS-P+, pH7.4 (Cytiva), and an equilibrium state was created at a flow rate of […]. Ligand immobilization was performed at a flow rate of 10 µL/min. After mixing 50 µL each of 60 mM EDC solution (Cytiva) and 650 mM NHS solution (Cytiva), the mixture was reacted at a flow rate of 10 µL/min for 420 seconds. 150 µL of […] THE His Tag Antibody, mAb, Mouse (GenScript) was prepared by diluting with 10 mM acetic acid solution (pH 5.0), and reacted at a flow rate of 10 µL/ min for 420 seconds. Then, THE His Tag Antibody, mAb, Mouse (GenScript) was immobilized as a capture molecule on the CM3 sensor chip. After immobilization, capping was performed by reacting with 1.0 M ethanolamine solution (Cytiva) at a flow rate of 10 µL/min for 420 seconds. 300 nM hTfR was captured at a flow rate of 10 µL/min, a peptide solution prepared at 10 mM in DMSO was diluted with running buffer to achieve a final concentration of 10 µM, and peptide solutions at 250 nM, 125 nM, 62.5 nM, 25 nM, and 12.5 nM were prepared. . The peptide samples were reacted at a flow late of 30 µL/min for 120 seconds, followed by dissociation for 600 seconds. The kinetics of the peptide against hTfR was obtained by SPR measurement for the above samples.
The kinetic evaluation model was single-cycle kinetics, and curve fitting was performed using Biacore T200 Evaluation Software Version 3.0 (Cytiva). The binding of the peptide to hTfR was evaluated by performing curve fitting on the obtained sensorgram by the least squares method and obtaining the kon value, the koff value, and the KD value.

[1] = Table 2-1-2, read-out: hTfR SPR pH7.4 KD(n M)
[2] = Table 2-2, read-out: hTfR SPR pH7.4 KD

Row | Kd [1] | Kd [2] | Compound | also measured
1 | – | 81.6 nM | CC[C@H](C)[C@@H]1NC(=O)[C@H](Cc2ccc(OC)cc2)NC(=O)[C@H](Cc2ccc(N)nc2)NC(=O)[C@H](CC(N)=O)NC(=O)[C@H](Cc2cnc3ccccn23)NC(=O)[C@H](C(C)C)NC(=O)[C@H](Cc2cccc(Cl)c2)N(C)C(=O)[C@H](C(C)C)NC(=O)[C@H](C)NC(=O)CSC[C@@H](C(=O)NCC(=O)N[C@H](CCC(=O)O)C(=O)N[C@H](CCC(=O)O)C(=O)N[C@H](CCC(=O)O)C(=O)N[C@H](CO)C(=O)N[C@H](CO)C(=O)N[C@@H](CCCCN=[N+]=[N-])C(N)=O)NC(=O)[C@H](Cc2ccc(C(=O)O)cc2)N(C)C(=O)[C@H](Cc2ccncc2)NC(=O)[C@H](CCCNC(=N)N)NC(=O)[C@H](CCCNC(=N)N)NC(=O)[C@H]([C@@H](C)CC)NC1=O [compound 200] | –
2 | – | 212 nM | CC[C@H](C)[C@@H]1NC(=O)[C@H](Cc2ccc(OC)cc2)NC(=O)[C@H](Cc2ccc(N)nc2)NC(=O)[C@H](CC(N)=O)NC(=O)[C@H](Cc2cnc3ccccn23)NC(=O)[C@H](C(C)C)NC(=O)[C@H](Cc2ccccc2)N(C)C(=O)[C@H](C(C)C)NC(=O)[C@H](C)NC(=O)CSC[C@@H](C(=O)NCC(=O)N[C@H](CCC(=O)O)C(=O)N[C@H](CCC(=O)O)C(=O)N[C@H](CCC(=O)O)C(=O)N[C@H](CO)C(=O)N[C@H](CO)C(=O)N[C@@H](CCCCN=[N+]=[N-])C(N)=O)NC(=O)[C@H](Cc2ccc(C(=O)O)cc2)N(C)C(=O)[C@H](Cc2ccncc2)NC(=O)[C@H](CCCNC(=N)N)NC(=O)[C@H](CCCNC(=N)N)NC(=O)[C@H]([C@@H](C)CC)NC1=O [compound 201] | –
3 | – | 515 nM | CC[C@H](C)[C@@H]1NC(=O)[C@H](Cc2ccc(OC)cc2)NC(=O)[C@H](Cc2ccc(N)nc2)NC(=O)[C@H](CC(N)=O)NC(=O)[C@H](Cc2cnc3ccccn23)NC(=O)[C@H](C(C)C)NC(=O)[C@H](Cc2ccccc2)N(C)C(=O)[C@H](C(C)C)NC(=O)[C@H](C)NC(=O)CSC[C@@H](C(=O)NCC(=O)N[C@H](CCC(=O)O)C(=O)N[C@H](CCC(=O)O)C(=O)N[C@H](CCC(=O)O)C(=O)N[C@H](CO)C(=O)N[C@H](CO)C(=O)N[C@@H](CCCCN=[N+]=[N-])C(N)=O)NC(=O)[C@H](Cc2ccc(O)cc2)N(C)C(=O)[C@H](Cc2ccncc2)NC(=O)[C@H](CCCNC(=N)N)NC(=O)[C@H](CCCNC(=N)N)NC(=O)[C@H]([C@@H](C)CC)NC1=O [compound 202] | –

The next lines start with the molecule.

Row | Compound | Kd [1] | Kd [2] | also measured
4 | CC[C@H](C)[C@@H]1NC(=O)[C@H](Cc2ccc(OCC(=O)N3CCN(CC(=O)O)CC3)cc2)NC(=O)[C@H](Cc2ccc(N)nc2)NC(=O)[C@H](CC(N)=O)NC(=O)[C@H](Cc2c[nH]c3ncccc23)NC(=O)[C@H](C(C)C)NC(=O)[C@H](Cc2cccc(Cl)c2)N(C)C(=O)[C@H](C(C)C)NC(=O)[C@H](C)NC(=O)CSC[C@@H](C(=O)NCCOCCOCCOCCOCCC(N)=O)NC(=O)[C@H](Cc2ccc(O)cc2)N(C)C(=O)[C@H](Cc2ccncc2)NC(=O)[C@H](CCCCN2CCOCC2)NC(=O)[C@H](CCCCNC(=O)N2CCN(CC(=O)O)CC2)NC(=O)[C@H]([C@@H](C)CC)NC1=O [compound 157] ({CH2CO}-AV[NMePhe(3-Cl)]V[Trp(7-aza)]N[3Pal(6-NH2)]Y(CH2CON(CH2CH2)2NCH2COOH)IIK([CO-Piperazinyl(4-CH2COOH)])[Nle(6-morpholino)][4Pal][NMeY]C[PEG4]-NH2; thioether N-15) | 15 nM | – | –
5 | CC[C@H](C)[C@@H]1NC(=O)[C@H](Cc2ccc(OCC(=O)N3CCN(CC(=O)O)CC3)cc2)NC(=O)[C@H](Cc2ccc(N)nc2)NC(=O)[C@H](CC(N)=O)NC(=O)[C@H](Cc2cn(CC(=O)O)c3ccccc23)NC(=O)[C@H](C(C)C)NC(=O)[C@H](Cc2cccc(Cl)c2)N(C)C(=O)[C@H](C(C)C)NC(=O)[C@H](C)NC(=O)CSC[C@@H](C(=O)NCCOCCOCCOCCOCCC(N)=O)NC(=O)[C@H](Cc2ccc(O)cc2)N(C)C(=O)[C@H](Cc2ccncc2)NC(=O)[C@H](CCCNC(=N)N)NC(=O)[C@H](CCCCNC(=O)N2CCN(CC(=O)O)CC2)NC(=O)[C@H]([C@@H](C)CC)NC1=O [compound 158] ({CH2CO}-AV[NMePhe(3-Cl)]V[Trp(1-CH2COOH)]N[3Pal(6-NH2)]Y(CH2CON(CH2CH2)2NCH2COOH)IIK([CO-Piperazinyl(4-CH2COOH)])R[4Pal][NMeY]C[PEG4]-NH2; thioether N-15) | 20.2 nM | – | –
6 | CC[C@H](C)[C@@H]1NC(=O)[C@H](Cc2ccc(OCC(=O)N3CCN(CC(=O)O)CC3)cc2)NC(=O)[C@H](Cc2ccc(N)nc2)NC(=O)[C@H](CC(N)=O)NC(=O)[C@H](Cc2c[nH]c3ncccc23)NC(=O)[C@H](C(C)C)NC(=O)[C@H](Cc2cccc(Cl)c2)N(C)C(=O)[C@H](C(C)C)NC(=O)[C@H](C)NC(=O)CSC[C@@H](C(=O)NCCOCCOCCOCCOCCC(N)=O)NC(=O)[C@H](Cc2ccc(O)cc2)N(C)C(=O)[C@H](Cc2cccc(C(=O)O)c2)NC(=O)[C@H](CCCNC(=N)N)NC(=O)[C@H](CCC(=O)NCCOCCOCCOCCOCCOCCOCCOCCOC)NC(=O)[C@H]([C@@H](C)CC)NC1=O [compound 159] ({CH2CO}-AV[NMePhe(3-Cl)]V[Trp(7-aza)]N[3Pal(6-NH2)]Y(CH2CON(CH2CH2)2NCH2COOH)IIE(NH(CH2CH2O)8Me)R[Phe(3-COOH)][NMeY]C[PEG4]-NH2; thioether N-15) | 6.55 nM | – | –
7 | CC[C@H](C)[C@@H]1NC(=O)[C@H](Cc2ccc(OCC(=O)N3CCN(CC(=O)O)CC3)cc2)NC(=O)[C@H](Cc2ccc(N)nc2)NC(=O)[C@H](CC(N)=O)NC(=O)[C@H](Cc2cn(CC(=O)O)c3ccccc23)NC(=O)[C@H](C(C)C)NC(=O)[C@H](Cc2cccc(Cl)c2)N(C)C(=O)[C@H](C(C)C)NC(=O)[C@H](C)NC(=O)CSC[C@@H](C(=O)NCCOCCOCCOCCOCCC(N)=O)NC(=O)[C@H](Cc2ccc(O)cc2)N(C)C(=O)[C@H](Cc2ccncc2)NC(=O)[C@H](CCCNC(=N)N)NC(=O)[C@H](CCC(=O)NCCOCCOCCOCCOCCOCCOCCOCCOC)NC(=O)[C@H]([C@@H](C)CC)NC1=O [compound 160] | 20.8 nM | – | –
8 | CCC(CC)[C@@H]1NC(=O)[C@H](Cc2ccc(OCC(=O)O)cc2)NC(=O)[C@H](Cc2ccc(N)nc2)NC(=O)[C@H](CC(N)=O)NC(=O)[C@H](Cc2c[nH]c3ncccc23)NC(=O)[C@H](C(C)C)NC(=O)[C@H](Cc2cccc(Cl)c2)N(C)C(=O)[C@H](C(C)C)NC(=O)[C@H](C)NC(=O)CSC[C@@H](C(=O)NCCOCCOCCOCCOCCC(N)=O)NC(=O)[C@H](Cc2ccc(C(=O)O)cc2)N(C)C(=O)[C@H](Cc2cccc(C(=O)O)c2)NC(=O)[C@H](CCCNC(=N)N)NC(=O)[C@H](CCC(=O)NCCOCCOCCOCCOCCOCCOCCOCCOC)NC(=O)[C@H]([C@@H](C)CC)NC1=O [compound 161] ({CH2CO}-AV[NMePhe(3-Cl)]V[Trp(7-aza)]N[3Pal(6-NH2)]Y(Carboxymethyl)[Nva(3-Et)]IE(NH(CH2CH2O)8Me)R[Phe(3-COOH)][NMePhe(4-COOH)]C[PEG4]-NH2; thioether N-15) | 12200 nM | – | –
9 | CCC(CC)[C@@H]1NC(=O)[C@H](Cc2ccc(O)cc2)NC(=O)[C@H](Cc2ccc(O)cc2)NC(=O)[C@H](CC(N)=O)NC(=O)[C@H](Cc2c[nH]c3ccccc23)N(C)C(=O)[C@H](C(C)C)NC(=O)[C@H](Cc2ccccc2)N(C)C(=O)[C@H](C(C)C)NC(=O)[C@H](C)NC(=O)CSC[C@@H](C(=O)NCC(=O)N[C@@H](CCCCN=[N+]=[N-])C(N)=O)NC(=O)[C@H](Cc2ccc(O)cc2)N(C)C(=O)[C@H](Cc2cccc(C(=O)NCCOCCOCCOCCOCCC(=O)O)c2)NC(=O)[C@H](CCCNC(=N)N)NC(=O)[C@H](CCCCN)NC(=O)[C@H]([C@@H](C)CC)NC1=O [compound 195] ({CH2CO}-AV[NMeF]V[NMeW]NYY[Nva(3-Et)]IKR[X1](PEG4)[NMeY]CG[Lys(N3)]-NH2; thioether N-15) | – | – | Kd (Table 1-3-2-2, read-out: hTfR SPR pH7.4 KD): 5.77 nM
